Data from patent US9181273B2, “Morpholine-spirocyclic piperidine amides as modulators of ion channels” (Vertex Pharmaceuticals Incorporated, priority 2011, dated 2015).

target: human NaV subtype, like NaV 1.7 (Homo sapiens, UniProt Q15858); experiment: E-VIPR optical membrane potential assay with electrical stimulation; format: cell-based; conditions: active against one or more sodium channels; assay and NaV subtype not specified for Table 3; read-out: IC50 Binned Activity Data
Source text: Sodium channels are voltage-dependent proteins that can be activated by inducing membrane voltage changes by applying electric fields. […] The instrument comprises a microtiter plate handler, an optical system for exciting the coumarin dye while simultaneously recording the coumarin and oxonol emissions, a waveform generator, a current- or voltage-controlled amplifier, and a device for inserting electrodes in well. Under integrated computer control, this instrument passes user-programmed electrical stimulus protocols to cells within the wells of the microtiter plate.
24 hours before the assay on E-VIPR, HEK cells expressing human NaV subtype, like NaV 1.7, are seeded in 384-well poly-lysine coated plates at 15,000-20,000 cells per well. Other subtypes are performed in an analogous mode in a cell line expressing the NaV of interest. […] Cells are grown in vented cap flasks, in 90% humidity and 10% CO2, to 100% confluence. They are usually split by trypsinization 1:10 or 1:20, depending on scheduling needs, and grown for 2-3 days before the next split.
To make the solution Add volume of 10% Pluronic F127 stock equal to volumes of CC2-DMPE+DiSBAC6(3). The order of preparation is first mix Pluronic and CC2-DMPE, then add DiSBAC6(3) while vortexing, then add Bath1+β-Cyclodextrin.
1) Pre-spot compounds (in neat DMSO) into compound plates. […] Final compound plate volume will be 80 μL (80-fold intermediate dilution from 1 μL DMSO spot; 160-fold final dilution after transfer to cell plate).
2) Prepare Hexyl Dye Solution.
3) Prepare cell plates. On the day of the assay, medium is aspirated and cells are washed three times with 100 μL of Bath1 Solution, maintaining 25 μL residual volume in each well.
4) Dispense 25 μL per well of Hexyl Dye Solution into cell plates. Incubate for 20-35 minutes at room temp or ambient conditions.
5) Dispense 80 μL per well of Bath1 into compound plates. Acid Yellow-17 (1 mM) is added and Potassium Chloride can be altered from 4.5 to 20 mM depending on the NaV subtype and assay sensitivity.
6) Wash cell plates three times with 100 μL per well of Bath1, leaving 25 μL of residual volume. Then transfer 25 uL per well from Compound Plates to Cell Plates. Incubate for 20-35 minutes at room temp/ambient condition
7) Read Plate on E-VIPR. Use the current-controlled amplifier to deliver stimulation wave pulses for typically 9 seconds and a scan rate of 400 Hz. A pre-stimulus recording is performed for 0.5 seconds to obtain the un-stimulated intensities baseline. The stimulatory waveform is applied for 9 seconds followed by 0.5 seconds of post-stimulation recording to examine the relaxation to the resting state. The stimulatory waveform of the electrical stimulation is specific for each cell type and can vary the magnitude, duration and frequency of the applied current to provide an optimal assay signal.
Data are analyzed and reported as normalized ratios of background-subtracted emission intensities measured in the 460 nm and 580 nm channels. Background intensities are then subtracted from each assay channel. Background intensities are obtained by measuring the emission intensities during the same time periods from identically treated assay wells in which there are no cells. The response as a function of time is then reported as the ratios obtained using the following formula: […]
The data is further reduced by calculating the initial (Ri) and final (Rf) ratios. These are the average ratio values during part or all of the pre-stimulation period, and during sample points during the stimulation period. The response to the stimulus R=Rf/Ri is then calculated and reported as a function of time.
Control responses are obtained by performing assays in the presence of a compound with the desired properties (positive control), such as tetracaine, and in the absence of pharmacological agents (negative control). Responses to the negative (N) and positive (P) controls are calculated as above. The compound antagonist activity A is defined as: […]

Chain of human NaV subtype, like NaV 1.7 (Q15858 whole entry): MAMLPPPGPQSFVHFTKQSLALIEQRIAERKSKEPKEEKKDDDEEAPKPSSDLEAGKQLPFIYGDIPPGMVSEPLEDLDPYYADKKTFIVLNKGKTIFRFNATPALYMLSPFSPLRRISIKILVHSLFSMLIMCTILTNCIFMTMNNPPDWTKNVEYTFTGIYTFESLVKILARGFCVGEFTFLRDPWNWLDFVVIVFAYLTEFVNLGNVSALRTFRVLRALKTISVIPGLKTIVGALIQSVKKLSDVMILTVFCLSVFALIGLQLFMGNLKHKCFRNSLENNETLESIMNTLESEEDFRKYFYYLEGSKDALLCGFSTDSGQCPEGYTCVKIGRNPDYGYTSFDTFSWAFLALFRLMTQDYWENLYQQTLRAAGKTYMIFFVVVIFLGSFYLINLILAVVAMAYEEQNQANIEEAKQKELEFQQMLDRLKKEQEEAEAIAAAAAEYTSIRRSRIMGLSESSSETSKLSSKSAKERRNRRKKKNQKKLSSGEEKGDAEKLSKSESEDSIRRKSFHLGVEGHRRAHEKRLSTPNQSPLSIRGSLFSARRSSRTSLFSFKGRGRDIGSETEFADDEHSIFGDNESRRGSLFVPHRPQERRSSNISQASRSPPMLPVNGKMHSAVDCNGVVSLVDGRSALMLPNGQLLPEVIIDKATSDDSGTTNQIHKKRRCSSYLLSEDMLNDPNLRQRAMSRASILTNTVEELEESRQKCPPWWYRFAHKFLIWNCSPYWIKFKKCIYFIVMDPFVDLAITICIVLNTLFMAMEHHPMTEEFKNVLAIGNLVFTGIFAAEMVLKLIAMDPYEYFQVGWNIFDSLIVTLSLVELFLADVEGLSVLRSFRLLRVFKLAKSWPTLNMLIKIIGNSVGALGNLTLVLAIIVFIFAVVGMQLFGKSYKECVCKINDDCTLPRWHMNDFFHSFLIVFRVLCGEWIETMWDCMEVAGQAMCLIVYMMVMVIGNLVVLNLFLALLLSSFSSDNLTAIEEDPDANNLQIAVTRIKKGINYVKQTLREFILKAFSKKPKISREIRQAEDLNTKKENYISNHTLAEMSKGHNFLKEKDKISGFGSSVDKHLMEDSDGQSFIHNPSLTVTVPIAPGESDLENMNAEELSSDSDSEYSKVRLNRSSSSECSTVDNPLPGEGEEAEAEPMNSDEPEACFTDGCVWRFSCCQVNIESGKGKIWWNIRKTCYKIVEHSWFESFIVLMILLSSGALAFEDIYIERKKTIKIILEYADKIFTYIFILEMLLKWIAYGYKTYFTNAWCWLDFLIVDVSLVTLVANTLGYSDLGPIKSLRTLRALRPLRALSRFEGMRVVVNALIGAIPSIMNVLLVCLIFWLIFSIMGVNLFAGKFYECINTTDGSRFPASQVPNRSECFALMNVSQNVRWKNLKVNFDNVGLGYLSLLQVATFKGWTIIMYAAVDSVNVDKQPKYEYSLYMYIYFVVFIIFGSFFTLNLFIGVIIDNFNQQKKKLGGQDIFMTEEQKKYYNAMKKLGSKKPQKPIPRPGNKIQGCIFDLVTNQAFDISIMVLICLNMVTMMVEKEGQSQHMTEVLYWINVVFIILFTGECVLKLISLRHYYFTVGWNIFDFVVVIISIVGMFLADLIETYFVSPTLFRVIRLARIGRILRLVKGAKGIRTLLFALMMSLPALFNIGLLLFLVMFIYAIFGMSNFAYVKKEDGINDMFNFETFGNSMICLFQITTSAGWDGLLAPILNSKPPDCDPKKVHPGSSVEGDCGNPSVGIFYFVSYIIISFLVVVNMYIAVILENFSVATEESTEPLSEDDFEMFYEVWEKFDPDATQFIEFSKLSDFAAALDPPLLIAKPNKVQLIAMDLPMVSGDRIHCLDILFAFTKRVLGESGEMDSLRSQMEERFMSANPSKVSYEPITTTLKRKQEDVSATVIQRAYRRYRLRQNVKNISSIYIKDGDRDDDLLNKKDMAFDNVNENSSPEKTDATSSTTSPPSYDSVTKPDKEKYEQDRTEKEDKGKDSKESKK

SMILES | IC50 [nM]
COCC1CN(C(C)C)CC2(CCN(C(=O)c3ccc(OC(C)C)c(C)c3)CC2)O1 (stereo not shown) [Compound 73] | < 2000
CC(C)Oc1ccc(C(=O)N2CCC3(CC2)CN(CC(F)F)CC(c2ccc(F)cc2)O3)cc1CO (stereo not shown) [Compound 4] | 2000 to 5000
Cc1ccc(C2CN(CC(F)F)CC3(CCN(C(=O)c4ccc(OC(C)C)c(C)c4)CC3)O2)cc1 (stereo not shown) [Compound 63] | 2000 to 5000
CCN1CC(COC)OC2(CCN(C(=O)c3ccc(OC(C)C)c(C)c3)CC2)C1 (stereo not shown) [Compound 254] | 2000 to 5000
Cc1cc(C(=O)N2CCC3(CC2)CN(CC(F)F)CC(c2ncco2)O3)ccc1OC(C)C (stereo not shown) [Compound 209] | < 2000
CC(C)Oc1ccc(C(=O)N2CCC3(CC2)CN(CC(F)F)CC(c2ncc(C(C)(C)C)o2)O3)cc1F (stereo not shown) [Compound 137] | < 2000
CC#CCN1CC(CC)OC2(CCN(C(=O)c3ccc(OC(C)C)c(C#N)c3)CC2)C1 (stereo not shown) [Compound 231] | > 5000
COCC1CN(Cc2cncnc2)CC2(CCN(C(=O)c3ccc(OC(C)C)c(C)c3)CC2)O1 (stereo not shown) [Compound 69] | > 5000
COCC1CN(CC(C)=O)CC2(CCN(C(=O)c3ccc(OC(C)C)c(C)c3)CC2)O1 (stereo not shown) [Compound 113] | > 5000
Cc1cc(C(=O)N2CCC3(CC2)CN(CC(F)F)CC(c2ccc(F)cc2)O3)ccc1OCC(C)(C)O (stereo not shown) [Compound 170] | < 2000
Cc1cc(C(=O)N2CCC3(CC2)CN(c2ncccn2)CC(COC(F)F)O3)ccc1OC(C)C (stereo not shown) [Compound 171] | < 2000
COCC1CN(c2cccnc2)CC2(CCN(C(=O)c3ccc(OC(C)C)c(C)c3)CC2)O1 (stereo not shown) [Compound 291] | < 2000
CCN1CC(c2ccccc2)OC2(CCN(C(=O)c3ccc(OC(C)C)c(CO)c3)CC2)C1 (stereo not shown) [Compound 166] | 2000 to 5000
CC#CCN1CC(CC)OC2(CCN(C(=O)c3ccc(OC)c(C(F)(F)F)c3)CC2)C1 (stereo not shown) [Compound 30] | > 5000
Cc1cc(C(=O)N2CCC3(CC2)CN(CC(F)F)CC(c2ccccn2)O3)ccc1OCCO (stereo not shown) [Compound 296] | > 5000
COCCN1CC(COC)OC2(CCN(C(=O)c3ccc(OC(C)C)c(C)c3)CC2)C1 (stereo not shown) [Compound 188] | 2000 to 5000
Cc1cnc(C2CN(CC(F)(F)F)CC3(CCN(C(=O)c4ccc(OC(C)C)c(C)c4)CC3)O2)o1 (stereo not shown) [Compound 309] | < 2000
Cc1cc(C(=O)N2CCC3(CC2)CN(Cc2ccccc2)CC(CCO)O3)ccc1OC(C)C (stereo not shown) [Compound 2] | > 5000
COCC1CN(c2ncccn2)CC2(CCN(C(=O)c3ccc(OC(C)C)c(F)c3)CC2)O1 (stereo not shown) [Compound 19] | < 2000
COc1cc(C(=O)N2CCC3(CC2)CN(CC(F)(F)F)CC(c2ccccc2)O3)ccc1OC(C)(C)C (stereo not shown) [Compound 128] | < 2000

SMILES | IC50 [nM]
COc1cc(C(=O)N2CCC3(CC2)CN(CC(F)F)CC(c2ccccn2)O3)cc(F)c1OC(C)C (stereo not shown) [Compound 297] | < 2000
CC#CCN1CC(CC)OC2(CCN(C(=O)c3ccc(OCC)c(C)c3)CC2)C1 (stereo not shown) [Compound 242] | 2000 to 5000
Cc1cnc(C2CN(Cc3ccccc3)CC3(CCN(C(=O)c4ccc(OC(C)C)c(C)c4)CC3)O2)o1 (stereo not shown) [Compound 83] | < 2000
COCC1CN(c2cccc(OC)c2)CC2(CCN(C(=O)c3ccc(OC(C)C)c(C)c3)CC2)O1 (stereo not shown) [Compound 74] | < 2000
CCN1CC(c2ncc(C)s2)OC2(CCN(C(=O)c3ccc(OC(C)C)c(OC)c3)CC2)C1 (stereo not shown) [Compound 76] | 2000 to 5000
CC#CCN1CC(COC)OC2(CCN(C(=O)c3ccc(OC(C)C)c(C)c3)CC2)C1 (stereo not shown) [Compound 218] | < 2000
CC#CCN1CC(CC)OC2(CCN(C(=O)c3ccc(OC(C)C)c(C)c3)CC2)C1 (stereo not shown) [Compound 248] | < 2000
COCC1CN(c2ncccn2)CC2(CCN(C(=O)c3ccc(OC(C)C)c(OC)c3)CC2)O1 (stereo not shown) [Compound 173] | 2000 to 5000
CCOCC1CN(CC)CC2(CCN(C(=O)c3ccc(OC(C)C)c(C)c3)CC2)O1 (stereo not shown) [Compound 272] | > 5000
Cc1cc(C(=O)N2CCC3(CC2)CN(CC(F)F)CC(c2ncc(C(C)(C)C)o2)O3)ccc1OC(C)C (stereo not shown) [Compound 230] | < 2000
Cc1cc(C(=O)N2CCC3(CC2)CN(CC(F)(F)F)CC(C(C)(C)O)O3)ccc1OC(C)C (stereo not shown) [Compound 127] | 2000 to 5000
Cc1cc(C(=O)N2CCC3(CC2)CN(CC#N)CC(c2ccccc2)O3)ccc1OC(C)C (stereo not shown) [Compound 283] | < 2000
Cc1cc(C(=O)N2CCC3(CC2)CN(CC(F)F)CC(c2ccc(F)cc2)O3)ccc1OC(C)C (stereo not shown) [Compound 27] | < 2000
CCC1CN(c2ncccn2)CC2(CCN(C(=O)c3ccc(C4(O)CCCC4)c(F)c3)CC2)O1 (stereo not shown) [Compound 271] | < 2000
CCN1CC2(CCN(C(=O)c3ccc(OC(C)C)c(C)c3)CC2)OCC1c1ccccc1 (stereo not shown) [Compound 10] | < 2000
CCCN1CC(COC)OC2(CCN(C(=O)c3ccc(OC(C)C)c(C)c3)CC2)C1 (stereo not shown) [Compound 205] | < 2000
COc1cc(C(=O)N2CCC3(CC2)CN(CC(F)F)CC(c2cc[nH]n2)O3)ccc1OC(C)C (stereo not shown) [Compound 210] | > 5000
COCC1CN(C2CCN(C(C)=O)CC2)CC2(CCN(C(=O)c3ccc(OC(C)C)c(C)c3)CC2)O1 (stereo not shown) [Compound 121] | > 5000
COCC1CN(C2CCC(F)(F)CC2)CC2(CCN(C(=O)c3ccc(OC(C)C)c(C)c3)CC2)O1 (stereo not shown) [Compound 220] | < 2000
COCC1CN(c2ccnc(C)c2)CC2(CCN(C(=O)c3ccc(OC(C)C)c(C)c3)CC2)O1 (stereo not shown) [Compound 95] | > 5000

SMILES | IC50 [nM]
COc1cc(F)cc(C(=O)N2CCC3(CC2)CN(CC(F)(F)F)CC(c2ccccc2)O3)c1 (stereo not shown) [Compound 71] | > 5000
COCC1CN(Cc2ccccn2)CC2(CCN(C(=O)c3ccc(OC(C)C)c(C)c3)CC2)O1 (stereo not shown) [Compound 14] | > 5000
CCOCC1CN(c2ncccn2)CC2(CCN(C(=O)c3ccc(OC(C)C)c(C)c3)CC2)O1 (stereo not shown) [Compound 235] | < 2000
COCC1CN(C2CCCCC2)CC2(CCN(C(=O)c3ccc(OC(C)C)c(C)c3)CC2)O1 (stereo not shown) [Compound 204] | < 2000
CCN1CC(c2ccc(F)cc2)OC2(CCN(C(=O)c3ccc(OC(C)C)c(F)c3)CC2)C1 (stereo not shown) [Compound 259] | < 2000
Cc1cc(C(=O)N2CCC3(CC2)CN(CC(F)(F)F)CC(c2ccccc2)O3)ccc1OCCO (stereo not shown) [Compound 199] | 2000 to 5000
CCC1CN(c2ccccn2)CC2(CCN(C(=O)c3ccc(C(C)(C)O)c(C)c3)CC2)O1 (stereo not shown) [Compound 97] | < 2000
Cc1cc(C(=O)N2CCC3(CC2)CN(C(=O)C(C)C)CC(c2ccccc2)O3)ccc1OC(C)C (stereo not shown) [Compound 289] | 2000 to 5000
CCN1CC(C)(C)OC2(CCN(C(=O)c3ccc(OC(C)C)c(C)c3)CC2)C1 [Compound 28] | > 5000
COCC1CN(C2CCC2)CC2(CCN(C(=O)c3ccc(OC(C)C)c(C)c3)CC2)O1 (stereo not shown) [Compound 285] | < 2000
COCC1CN(c2ncccn2)CC2(CCN(C(=O)c3ccccc3OC(F)F)CC2)O1 (stereo not shown) [Compound 164] | > 5000
COc1cc(C(=O)N2CCC3(CC2)CN(CC(F)(F)F)CC(c2ccccc2)O3)ccc1OC(C)C (stereo not shown) [Compound 278] | < 2000
Cc1cc(C(=O)N2CCC3(CC2)CN(CC(F)F)CC(c2ccccn2)O3)ccc1OCCCO (stereo not shown) [Compound 305] | 2000 to 5000
CC(C)Oc1ccc(C(=O)N2CCC3(CC2)CN(CC(F)F)CC(c2ccccn2)O3)cc1Cl (stereo not shown) [Compound 222] | < 2000
Cc1nc2cccc(C(=O)N3CCC4(CC3)CN(CC(F)(F)F)CC(c3ccccc3)O4)c2o1 (stereo not shown) [Compound 116] | < 2000
CCC1COC2(CCN(C(=O)c3ccc(OC(C)C)c(C)c3)CC2)CN1CC (stereo not shown) [Compound 40] | > 5000
CCC(=O)N1CC(c2ccccc2)OC2(CCN(C(=O)c3ccc(OC(C)C)c(C)c3)CC2)C1 (stereo not shown) [Compound 266] | 2000 to 5000
CC(C)CS(=O)(=O)c1ccc(C(=O)N2CCC3(CC2)CN(CC(F)(F)F)CC(c2ccccc2)O3)cc1 (stereo not shown) [Compound 165] | < 2000
